According to patent US20240174649A1, “CULLIN-RING E3 UBIQUITIN LIGASE 4 INHIBITOR COMPOUNDS AND METHODS OF THEIR USE” (ICAHN SCHOOL OF MEDICINE AT MOUNT SINAI, priority 2021, published 2024):

Tests used:
[1] = target: E3 (CUL1) (Homo sapiens (Human), UniProt Q13616); assay: E3 (CUL1) inhibition (Table 1); format: biochemical
Method: The reaction mixture (15 μl) was assembled onto a 384-well microtiter plate. […] ATP (0.66 mM) was then added to the mix followed by a brief centrifugation to settle down the mixture. The resulting plate was incubated at 30° C. in the Synergy-H1 reader and the fluorescence signal was monitored. Ubiquitination was quantified based on the ratio of acceptor:donor fluorescence (excitation 515 nm; donor emission 570 nm, acceptor emission 670 nm).

[2] = target: E3 (CUL4) (Homo sapiens (Human), UniProt Q13619); assay: E3 (CUL4) inhibition (Table 1); format: biochemical
E3 (CUL4), sequence (Q13619 whole entry): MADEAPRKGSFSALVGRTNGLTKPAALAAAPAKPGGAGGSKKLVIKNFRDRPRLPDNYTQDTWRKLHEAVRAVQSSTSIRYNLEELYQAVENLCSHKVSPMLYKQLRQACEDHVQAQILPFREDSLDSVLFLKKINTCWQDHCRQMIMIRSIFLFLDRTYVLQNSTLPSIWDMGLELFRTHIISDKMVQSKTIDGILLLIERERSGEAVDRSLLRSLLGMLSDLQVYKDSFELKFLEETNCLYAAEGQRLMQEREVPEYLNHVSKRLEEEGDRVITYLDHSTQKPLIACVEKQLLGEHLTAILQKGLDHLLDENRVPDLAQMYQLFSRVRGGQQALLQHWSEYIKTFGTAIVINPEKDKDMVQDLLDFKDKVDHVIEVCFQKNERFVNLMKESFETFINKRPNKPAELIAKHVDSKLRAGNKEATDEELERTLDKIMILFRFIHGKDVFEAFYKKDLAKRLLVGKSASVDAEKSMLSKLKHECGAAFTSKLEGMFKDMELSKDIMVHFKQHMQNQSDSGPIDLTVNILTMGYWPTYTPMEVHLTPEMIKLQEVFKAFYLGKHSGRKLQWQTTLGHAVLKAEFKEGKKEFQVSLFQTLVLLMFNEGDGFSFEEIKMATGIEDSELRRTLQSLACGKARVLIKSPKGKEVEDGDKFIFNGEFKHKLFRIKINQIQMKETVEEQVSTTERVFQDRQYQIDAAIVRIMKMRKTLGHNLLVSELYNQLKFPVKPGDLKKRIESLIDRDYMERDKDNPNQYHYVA
E3 (CUL4), sequence (P62877 whole entry partner): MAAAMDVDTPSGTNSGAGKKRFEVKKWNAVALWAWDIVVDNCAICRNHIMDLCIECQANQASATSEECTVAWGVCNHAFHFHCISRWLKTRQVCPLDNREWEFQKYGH
Method: The reaction was incubated for 5 min at 37° C. […] The reaction was incubated for 5 min at room temperature. In the second step (chase), the completed Cdc34b-Ub thiol ester reaction mixture was combined with one third of the completed mono-ubiquitination mixture. The final volume was adjusted to 10 μl with a mix that contained 50 mM Tris-HCl (pH 7.4), 0.5 mM DTT, 0.1 mg/ml of BSA, 5 mM MgCl2, and 2 mM ATP. Compounds were added where indicated. The chase reaction was incubated for 10 min at 37° C. The reaction products were separated by 4-20% SDS-polyacrylamide gel electrophoresis. The reaction scheme was identical to the one described above for FIGS. 12A-B. […] The reaction products, separated by SDS-PAGE, were visualized and analyzed by phospho-imaging using Typhoon 9500 scanner.

[3] = tested on: cancer cells; assay: Apoptosis, Annexin V flow cytometry; format: cell-based; conditions: Table 1
Method: Cells (5×10^4) were seeded 24 hours before compound treatment. Compound was added to the culture media and cells were cultured with the compound for 48 hours. The treated cells were then transferred into 5 ml flow cytometry tubes and the well was washed once with PBS to collect any remaining cells. The cells were then pelleted at 500×g for 5 min with a Beckman CS-6KR centrifuge at 4° C. After removal of supernatant, the cells pellet was washed with Annexin V binding buffer (10 mM Hepes-NaOH, pH 7.4, 150 mM NaCl, 5 mM KCl, 1 mM MgCl2, and 1.8 mM CaCl2). Cells were pelleted once again and incubated in the dark with Annexin V-FITC (2 μg/ml) in binding buffer for 5 min then analyzed using LSRFortessa flow cytometer (BD).

E3 (CUL1), sequence (Q13616 whole entry): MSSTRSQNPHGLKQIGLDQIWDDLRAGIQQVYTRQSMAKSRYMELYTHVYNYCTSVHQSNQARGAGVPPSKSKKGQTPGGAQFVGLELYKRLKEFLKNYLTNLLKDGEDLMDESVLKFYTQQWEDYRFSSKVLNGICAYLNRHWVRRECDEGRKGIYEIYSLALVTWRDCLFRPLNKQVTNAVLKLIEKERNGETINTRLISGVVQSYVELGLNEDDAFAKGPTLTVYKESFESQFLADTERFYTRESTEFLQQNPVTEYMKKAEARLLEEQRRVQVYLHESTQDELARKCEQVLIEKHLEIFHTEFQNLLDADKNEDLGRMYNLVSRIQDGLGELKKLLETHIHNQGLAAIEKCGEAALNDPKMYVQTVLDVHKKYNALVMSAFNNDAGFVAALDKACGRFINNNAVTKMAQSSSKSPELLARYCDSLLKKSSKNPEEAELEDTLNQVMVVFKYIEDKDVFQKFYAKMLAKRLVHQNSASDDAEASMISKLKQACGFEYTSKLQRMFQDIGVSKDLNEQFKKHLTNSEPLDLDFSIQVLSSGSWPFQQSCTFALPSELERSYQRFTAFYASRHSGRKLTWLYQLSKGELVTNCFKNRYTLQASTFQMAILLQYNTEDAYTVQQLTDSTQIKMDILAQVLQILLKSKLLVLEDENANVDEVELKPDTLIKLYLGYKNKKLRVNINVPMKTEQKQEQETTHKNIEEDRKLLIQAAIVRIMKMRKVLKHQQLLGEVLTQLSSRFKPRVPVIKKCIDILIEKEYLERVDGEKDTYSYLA
E3 (CUL1), sequence (P62877 whole entry partner): as the sequence (P62877 whole entry partner) above

CC(=O)Oc1ccc2c(=O)cc(C(F)(F)F)oc2c1OC(C)=O [KH-3-12]
EC50 [1]: 32 µM
EC50 [2]: > 75 µM

O=c1ccoc2c(O)c(O)ccc12 [KH-3-49]
EC50 [1]: 11 µM
EC50 [2]: > 75 µM

O=c1cc(C(F)(F)F)oc2c(O)c(O)ccc12 [KH-3-50]
EC50 [1]: 4.9 µM
E3 (CUL4) Inhibition EC50 [2]: Inactive

O=c1c(-c2cnn(-c3ccc(C(F)(F)F)cc3)c2)c(C(F)(F)F)oc2c(O)c(O)ccc12 [KH-3-150]
EC50 [3]: 6 µM
EC50 [1]: 9.3 µM
EC50 [2]: > 14 µM

O=c1c(-c2cnn(-c3cccc(Cl)c3)c2)c(C(F)(F)F)oc2c(O)c(O)ccc12 [KH-3-151]
EC50 [3]: 5 µM
EC50 [1]: 13 µM
EC50 [2]: ~14 µM

N#Cc1ccc(-n2cc(-c3c(C(F)(F)F)oc4c(O)c(O)ccc4c3=O)cn2)cc1 [KH-3-152]
EC50 [3]: 30 µM
EC50 [1]: 9 µM
EC50 [2]: > 14 µM

O=c1c(-c2ccnn2Cc2ccccc2)c(C(F)(F)F)oc2c(O)c(O)ccc12 [KH-3-160A]
EC50 [3]: 21 µM
EC50 [1]: 3.4 µM
EC50 [2]: ~20 µM

O=c1c(-c2cnn(-c3ccc(F)cc3)c2)c(C(F)(F)F)oc2c(O)c(O)ccc12 [KH-3-174]
EC50 [1]: 8 µM
EC50 [2]: > 14 µM

O=c1c(-c2cnn(-c3cccc(F)c3)c2)c(C(F)(F)F)oc2c(O)c(O)ccc12 [KH-4-41]
EC50 [3]: 9 µM
EC50 [1]: 5 µM
EC50 [2]: ~14 µM

NC(=O)c1ccccc1-n1cc(-c2c(C(F)(F)F)oc3c(O)c(O)ccc3c2=O)cn1 [KH-4-44]
EC50 [1]: 10 µM
E3 (CUL4) Inhibition EC50 [2]: Inactive

O=c1c(-c2cnn(-c3cccc(C(F)(F)F)c3)c2)c(C(F)(F)F)oc2c(O)c(O)ccc12 [KH-4-65]
EC50 [1]: 8 µM
EC50 [2]: > 14 µM

N#Cc1cccc(-n2cc(-c3c(C(F)(F)F)oc4c(O)c(O)ccc4c3=O)cn2)c1 [KH-4-66]
EC50 [1]: 9 µM
EC50 [2]: > 14 µM

O=c1c(-c2cnn(-c3cccnc3)c2)c(C(F)(F)F)oc2c(O)c(O)ccc12 [KH-4-67]
E3 (CUL1) Inhibition EC50 [1]: Inactive
E3 (CUL4) Inhibition EC50 [2]: Inactive

Nc1cccc(-n2cc(-c3c(C(F)(F)F)oc4c(O)c(O)ccc4c3=O)cn2)c1 [KH-4-78]
Apoptosis EC50 [3]: Inactive
EC50 [2]: > 14 µM

Cc1cccc(-n2cc(-c3c(C(F)(F)F)oc4c(O)c(O)ccc4c3=O)cn2)c1 [KH-4-79]
EC50 [3]: 19 µM
EC50 [2]: ~14 µM

O=c1c(-c2cnn(-c3ccccc3Cl)c2)c(C(F)(F)F)oc2c(O)c(O)ccc12 [KH-4-88]
EC50 [3]: 26 µM
EC50 [2]: > 14 µM

O=c1c(-c2cnn(-c3ccc(Cl)cc3Cl)c2)c(C(F)(F)F)oc2c(O)c(O)ccc12 [KH-4-98]
EC50 [3]: 9 µM
EC50 [2]: ~10 µM

O=c1c(-c2cnn(-c3ccc(Cl)c(Cl)c3)c2)c(C(F)(F)F)oc2c(O)c(O)ccc12 [KH-4-99]
EC50 [3]: 9 µM
EC50 [2]: ~10 µM

O=c1c(-c2cnn(-c3cc(Cl)cc(Cl)c3)c2)c(C(F)(F)F)oc2c(O)c(O)ccc12 [KH-4-116]
EC50 [3]: 6 µM
EC50 [2]: ~10 µM

O=c1c(-c2cnn(-c3ccccc3)c2)c(C(F)(F)F)oc2c(OS(=O)(=O)C(F)(F)F)c(O)ccc12 [KH-4-136]
Apoptosis EC50 [3]: Inactive
E3 (CUL4) Inhibition EC50 [2]: Inactive

O=c1c(-c2cnn(-c3ccccc3)n2)c(C(F)(F)F)oc2c(O)c(O)ccc12 [KH-5-09]
EC50 [2]: > 14 µM

COc1ccc2c(=O)c(-c3cnn(Cc4cccc(Cl)c4)c3)c(C(F)(F)F)oc2c1OC [MSSM-RJD-MM-017, 3-(1-(3-chlorobenzyl)-1H-pyrazol-4-yl)-7,8-dimethoxy-2-(trifluoromethyl)-4H-chromen-4-one]
EC50 [1]: 82 µM
EC50 [2]: > 10 µM

COc1cccc(Cn2cc(-c3c(C(F)(F)F)oc4c(OC)c(OC)ccc4c3=O)cn2)c1 [MSSM-RJD-MM-018, 7,8-dimethoxy-3-(1-(3-methoxybenzyl)-1H-pyrazol-4-yl)-2-(trifluoromethyl)-4H-chromen-4-one]
EC50 [1]: > 100 µM
EC50 [2]: > 10 µM

COc1ccc2c(=O)c(-c3cnn(Cc4cccc(C)c4)c3)c(C(F)(F)F)oc2c1OC [MSSM-RJD-MM-019]
EC50 [1]: 92 µM
EC50 [2]: > 10 µM
